Assay results: patent US20230141718A1, “METHODS OF TREATING GLIOBLASTOMA” (CELGENE QUANTICEL RESEARCH, INC., priority 2021, published 2023)

Tests used:
Type in all cases: in vivo, human
[1] = Safety (treatment-related adverse events), CC-90010-GBM-001
Description: The primary objectives of the study in this example were determination of tumor tissue concentration and plasma pharmacokinetics (PK) of Compound A. The secondary and exploratory objectives included safety, antitumor activity, cerebrospinal fluid concentration, and pharmacodynamics (PD).
(§1) The study described in this example (CC-90010-GBM-001 study/NCT04047303) enrolled patients with progressive or recurrent astrocytoma or recurrent glioblastoma who have failed radiation and chemotherapy, and who are candidates for surgical tumor resection as part of their salvage regimen.
(§2) Patients were treated with Compound A at 30 mg daily on Day 1 to Day 4 prior to undergoing indicated tumor resection and to maintain platelet count above the minimum of […] recommended for surgery (Part A, preoperative treatment). Following recovery from surgery and a minimum of 4 weeks from the first dose of Compound A, subjects who were fit to continue were treated with Compound A at 45 mg on a 4 days on/24 days off schedule (180 mg per 28-day cycle). Maintenance treatment continued until disease progression, unacceptable toxicity, or withdrawal of consent.

[2] = test system: progressive or recurrent astrocytoma or recurrent glioblastoma; experiment: Antitumor response per RANO and PFS, CC-90010-GBM-001
Description: (§3) The Response Assessment in Neuro-Oncology criteria (RANO) is used to assess response to first-line treatment of glioblastoma. See, Leao, D. J. et al., American Journal of Neuroradiology 2019, 1-11. The RANO criteria divides response into four types of response based on imaging (MRI) and clinical features: (1) complete response (CR); (2) partial response (PR); (3) stable disease (SD); and (4) progression. For this assessment, a measurable disease is defined as bidimensional contrast-enhancing lesions with clearly defined margins, with 2 perpendicular diameters of at least 10 mm, visible on ≥2 axial slices. The nonmeasurable disease is defined as either unidimensional measurable lesions, masses with margins not clearly defined as frequently noted in the surgical margins, or lesions with maximal perpendicular diameters of <10 mm.
as §1, §2

CCR1 RNA = experiment: Blood CCR1 RNA pharmacodynamics, CC-90010-GBM-002; conditions: for Day 4 blood CCR1 RNA downregulation: 2-4 hours post-dose
Description: The primary objectives of the study in this example were to establish the safety, maximum tolerated dose (MTD), and recommended phase 2 dose (RP2D) of Compound A. The preliminary efficacy, pharmacokinetics, and pharmacodynamics were also investigated.
(§4) The study described in this example (CC-90010-GBM-002/NCT04324840) is a phase 1B dose-finding study investigating standard of care of Compound A in combination with TMZ with or without radiotherapy (RT) in subjects with newly diagnosed GBM. Part A of the study is escalating the oral doses of Compound A in combination with adjuvant TMZ to estimate the MTD and/or the RP2D of Compound A as adjuvant therapy and escalating the oral doses of Compound A in combination with concomitant TMZ+radiotherapy (RT) to estimate the MTD and/or the RP2D of Compound A as concomitant therapy. Part B of the study is the safety and efficacy of Compound A administered at or below the MTD determined for the adjuvant therapy (AT) and concomitant therapy (CT).
The interim results for adjuvant Compound A+temozolomide are described. For adjuvant therapy, patients received Compound A at 15, 30, or 45 mg daily (4 days on/24 days off)+temozolomide administered per label for 6 cycles (150 mg/m^2 at Cycle 1 then 200 mg/m^2; QD for 5 days), followed by Compound A at 45 mg monotherapy daily (4 days on/24 days off).

newly diagnosed GBM = experiment: Efficacy (duration of treatment, PFS, best overall response), CC-90010-GBM-002 Part A
Description: as §3, §4
For adjuvant therapy, Compound A and TMZ was administered for 6 cycles, then Compound A as a monotherapy was administered in 28-day cycles until disease progression, start of a new anticancer therapy, or withdrawal of consent or physician's decision. For adjuvant therapy, Compound A was administered at 15, 30, and 45 mg 4 days on/24 days off and TMZ was administered at 150 or 200 mg/m^2 QD Days 1-5, followed by Compound A at 45 mg 4 days on/24 days off. For adjuvant therapy, part B, Compound A was administered at RP2D and TMZ was administered at 150 or 200 mg/m^2, followed by Compound A at 45 mg 4 days on/24 days off.
For concomitant therapy, Compound A, TMZ, and RT were administered for 6 weeks, then 4-week break, followed by adjuvant Compound A and TMZ for 6 cycles then Compound A monotherapy in 28-day cycles until disease progression, start of a new anticancer therapy, withdrawal of consent or physician's decision. For concomitant therapy, part A, Compound A was administered at 15 mg or 30 mg QD Days 1-4 (weeks 1,5), TMZ was administered at 75 mg/m^2/day QD, and RT was administered at 2 Gy QD×5 days/week, for 42 days. This was then followed by a break in treatment therapy, e.g., from 1 to up to 4 weeks. Thereafter, adjuvant therapy was initiated by administering Compound A at 30 mg or 45 mg and TMZ at 150 or 200 mg/m^2 QD Days 1-5 of a 28-day cycle. Adjuvant therapy cycles were repeated from 2 to 6 times. After adjuvant therapy, was a monotherapy treatment. Monotherapy comprised administering Compound A at 45 mg 4 days on/24 days off.
For Part A, eighteen patients were enrolled in the adjuvant cohort and received adjuvant Compound A 15 mg/day (n=5), 30 mg/day (n=6), or 45 mg/day (n=7) 4 days on/24 days off plus TMZ followed by Compound A monotherapy 45 mg/day 4 days on/24 days off. Fourteen patients were enrolled in the concomitant cohort and received concomitant Compound A 15 mg/day (n=6) or 30 mg/day (n=8) 4 days on/24 days off in combination with TMZ and RT, followed by adjuvant Compound A 30 mg/day 4 days on/24 days off and Compound A monotherapy 45 mg/day 4 days on/24 days off. The demographics and characteristics of treated patients are described in the below table.

In the case of Cn1cc(-c2cc(S(C)(=O)=O)ccc2OCC2CC2)c2ccccc2c1=O [Compound A, 4-[2-(cyclopropylmethoxy)-5-methylsulfonylphenyl]-2-methylisoquinolin-1-one], the “patients with Grade 3/4 TRAEs” value ([1]; N=20) is reported as 45%, the “patients with grade 3/4 thrombocytopenia” value ([1]; N=20) is reported as 25% and the “patients with serious TRAEs (hemiparesis and lethargy)” value ([1]; N=20) is reported as “one”. For the same compound, the “patients with ≥1 treatment-related adverse event (TRAE)” value ([1]; N=20) was 90%, the “tolerability” value ([1]; in vivo) was “well tolerated” and the “PD per RANO criteria” value ([2]; 17 evaluable patients) was 59%. For the same compound, the “stable disease per RANO criteria” value ([2]; 17 evaluable patients) was 41%, the “median PFS” value ([2]; IDH wild-type disease, 95% CI 1.4-3.6) was 3.0 months and the “6-month PFS rate” value ([2]; IDH wild-type disease, 95% CI 2.7-40.4) was 16.3%. For the same compound, the “6-month PFS rate” value ([2]; IDH-mutant disease) was 0%, the “median PFS” value ([2]; IDH-mutant disease, 95% CI 0.4-1.9) was 1.2 months and the “Six month progression-free survival” value ([2]; all evaluable) was 12%. For the same compound, the “Median progression-free survival (PFS)” value ([2]; all evaluable, 95% CI 1.4-3.3) was 1.9 months, the “Day 4 blood CCR1 RNA downregulation” value (CCR1 RNA; 15-mg group) was “downregulated partially” and the “Day 4 blood CCR1 RNA downregulation” value (CCR1 RNA; 30-mg group) was no less than 50%. The CCR1 downregulation (CCR1 RNA; following first and last dose of ≥30 mg, cycle 1, CC-90010-GBM-002 (FIG. 6)) was no less than 50%, the “best overall response: CR” value (newly diagnosed GBM; adjuvant cohort) was 6% and the “best overall response: NE” value (newly diagnosed GBM; adjuvant cohort) was 6%. For the same compound, the “best overall response: PD” value (newly diagnosed GBM; adjuvant cohort) was 11%, the “best overall response: SD” value (newly diagnosed GBM; adjuvant cohort) was 78% and the “median PFS” value (newly diagnosed GBM; adjuvant cohort, 95% CI 3.9-NE) was 7.7 months. For the same compound, the “progression-free survival (PFS) rate at 6 months” value (newly diagnosed GBM; adjuvant cohort, 95% CI 31.1-77.3) was 57.8%, the “best overall response: CR” value (newly diagnosed GBM; concomitant cohort) was 7% and the “best overall response: NE” value (newly diagnosed GBM; concomitant cohort) was 7%. The “best overall response: PD” value (newly diagnosed GBM; concomitant cohort) was 7%, the “best overall response: SD” value (newly diagnosed GBM; concomitant cohort) was 79% and the “median PFS” value (newly diagnosed GBM; concomitant cohort, 95% CI 5.2-14.0) was 12.3 months. The “PFS rate at 6 months” value (newly diagnosed GBM; concomitant cohort, 95% CI 37.3-87.2) was 69.2%.
